Experimental data published in ChEMBL document CHEMBL4715712 (Bioorg Med Chem Lett, 2016).
pIC50: −log10 of the molar value.

How the values were obtained:
[1] = target: T1, Prostaglandin G/H synthase 1 (Ovis aries, UniProt P05979); experiment: Inhibition of Ovine COX-1 assessed as decrease in prostaglandin production using arachidonic acid as substrate pretreated for 15 mins followed by substrate addition and measured after 2 mins by enzyme immunoassay
T1 sequence (P05979 whole entry): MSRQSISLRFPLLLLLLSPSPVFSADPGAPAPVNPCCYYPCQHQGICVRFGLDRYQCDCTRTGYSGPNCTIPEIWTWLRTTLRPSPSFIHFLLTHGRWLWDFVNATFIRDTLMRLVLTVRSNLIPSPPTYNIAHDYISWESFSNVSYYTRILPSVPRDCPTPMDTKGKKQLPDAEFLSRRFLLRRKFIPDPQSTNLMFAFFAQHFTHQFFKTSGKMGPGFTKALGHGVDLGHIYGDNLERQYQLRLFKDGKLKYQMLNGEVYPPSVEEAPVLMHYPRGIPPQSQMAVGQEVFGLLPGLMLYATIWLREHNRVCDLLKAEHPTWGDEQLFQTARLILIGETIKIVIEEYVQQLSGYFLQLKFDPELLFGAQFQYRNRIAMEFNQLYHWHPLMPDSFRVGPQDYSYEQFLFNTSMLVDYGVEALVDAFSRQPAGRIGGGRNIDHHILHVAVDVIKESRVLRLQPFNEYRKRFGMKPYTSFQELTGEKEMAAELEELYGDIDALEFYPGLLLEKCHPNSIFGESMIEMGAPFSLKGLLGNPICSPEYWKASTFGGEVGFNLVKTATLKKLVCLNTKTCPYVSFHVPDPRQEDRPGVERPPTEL

[2] = Inhibition of soya bean 15-LOX by enzyme immunoassay; set-up: species or system Glycine max
Rattus norvegicus = experiment: Antiinflammatory activity against po dosed Wistar albino rat model of carrageenan-induced foot paw edema after 3 hrs; format: functional
[3] = Ulcerogenic activity in rat assessed as average severity of ulcers at 50 mg/kg, po administered once daily for 3 consecutive days and measured after 1 hr post last dose (reference value: 0); format: toxicity, organism-based; settings: in vivo
[4] = Ulcerogenic activity in rat assessed as average number of ulcers at 50 mg/kg, po administered once daily for 3 consecutive days and measured after 1 hr post last dose (reference value: 0); format: toxicity, organism-based; settings: in vivo
[5] = Ulcerogenic activity in rat assessed as incidence of ulcer at 50 mg/kg, po administered once daily for 3 consecutive days and measured after 1 hr post last dose (reference value: 0%); format: toxicity, organism-based; settings: in vivo
[6] = Ulcerogenic activity in rat assessed as ulcer index at 50 mg/kg, po administered once daily for 3 consecutive days and measured after 1 hr post last dose; format: toxicity, organism-based; settings: in vivo, 72 h, time 3 day

Row | pIC50 [1] | pIC50 [2] | Structure (SMILES) | ED50 (Rattus norvegicus) [µmol/kg] | Activity [3] | Activity [4] | Activity [5] [%] | UI [6]
1 | 5.14 | 5.21 | COc1cccc(/C=C/C(=O)c2sc(-c3ccccc3)nc2C)c1OC | 59 | 1.03 | 0.6 | 50 | 6.63
2 | 5.41 | 5.55 | COc1ccc(/C=C/C(=O)c2sc(-c3ccccc3)nc2C)cc1OC | 80 | 0.57 | 0.3 | 30 | 3.87
3 |  |  | COC(=O)/C(O)=C/C(=O)c1sc(-c2ccccc2)nc1C |  | 0.39 | 0.4 | 30 | 3.79
4 | 5.08 | 5.13 | COc1ccc([C@@H]2CC(c3sc(-c4ccccc4)nc3C)=NN2c2ccc(S(C)(=O)=O)cc2)cc1OC | 52 | 0.85 | 0.5 | 30 | 4.35
5 | 4.99 | 5.05 | COc1cccc([C@@H]2CC(c3sc(-c4ccccc4)nc3C)=NN2c2ccc(S(N)(=O)=O)cc2)c1OC | 47 | 0.73 | 0.2 | 20 | 2.93
6 | 5.07 | 5.13 | COc1ccc([C@@H]2CC(c3sc(-c4ccccc4)nc3C)=NN2c2ccc(S(N)(=O)=O)cc2)cc1OC | 55 | 0.68 | 0.4 | 30 | 4.08
7 | 5.24 | 5.33 | COc1cc([C@@H]2CC(c3sc(-c4ccccc4)nc3C)=NN2c2ccc(S(N)(=O)=O)cc2)cc(OC)c1OC | 45 | 0.53 | 0.3 | 30 | 3.83
8 | 5.19 | 5.25 | COc1cccc([C@@H]2CC(c3sc(-c4ccccc4)nc3C)=NN2c2ccc(S(C)(=O)=O)cc2)c1OC | 70 | 0.25 | 0.4 | 20 | 2.65
9 | 5.19 | 5.22 | COC(=O)c1cc(-c2sc(-c3ccccc3)nc2C)nn1-c1ccc(S(N)(=O)=O)cc1 | 74 | 0.17 | 0.5 | 20 | 2.67
10 | 5.12 | 5.19 | COc1cc([C@@H]2CC(c3sc(-c4ccccc4)nc3C)=NN2c2ccc(S(C)(=O)=O)cc2)cc(OC)c1OC | 87 | 0.18 | 0.6 | 20 | 2.78
11 | 5.17 | 5.24 | COc1cc(/C=C/C(=O)c2sc(-c3ccccc3)nc2C)cc(OC)c1OC | 45 | 0.52 | 0.4 | 30 | 3.92
12 | 5.17 | 5.23 | COC(=O)c1cc(-c2sc(-c3ccccc3)nc2C)nn1-c1ccc(S(C)(=O)=O)cc1 | 90 | 0.28 | 0.2 | 20 | 2.48
13 |  |  | CC(=O)Oc1ccccc1C(=O)O [ASPIRIN] | 714 |  |  |  | 
14 |  |  | Cc1ccc(-c2cc(C(F)(F)F)nn2-c2ccc(S(N)(=O)=O)cc2)cc1 [CELECOXIB] | 47 | 0.5 | 0.4 | 20 | 2.9
15 |  | 5.25 | Cc1ccc(Cl)c(Nc2ccccc2C(=O)O)c1Cl [MECLOFENAMATE SODIUM] |  |  |  |  | 
